# Reference: patent US20250313576A1, “COMPOUND FOR PHOTOO[…] AND MEDICINAL COMPOSITION CONTAINING SAME” (The University of Tokyo, priority 2021, published 2025)
# Legend:
# [1] = molecular target: T1, aggregated tau overexpressed in HEK cells (Homo sapiens, UniProt P10636); experiment: Intracellular photooxygenation reaction evaluated by Western blotting; format: cell-based; conditions: for crosslinked product (more than 250 kDa) of the photooxygenation reaction: 595 nm light 15 minutes
# T1 construct: expressed in transfected cells; host or cells: HEK cells (line called Fs17)
# T1 sequence (P10636 2-412 isoform P10636-7): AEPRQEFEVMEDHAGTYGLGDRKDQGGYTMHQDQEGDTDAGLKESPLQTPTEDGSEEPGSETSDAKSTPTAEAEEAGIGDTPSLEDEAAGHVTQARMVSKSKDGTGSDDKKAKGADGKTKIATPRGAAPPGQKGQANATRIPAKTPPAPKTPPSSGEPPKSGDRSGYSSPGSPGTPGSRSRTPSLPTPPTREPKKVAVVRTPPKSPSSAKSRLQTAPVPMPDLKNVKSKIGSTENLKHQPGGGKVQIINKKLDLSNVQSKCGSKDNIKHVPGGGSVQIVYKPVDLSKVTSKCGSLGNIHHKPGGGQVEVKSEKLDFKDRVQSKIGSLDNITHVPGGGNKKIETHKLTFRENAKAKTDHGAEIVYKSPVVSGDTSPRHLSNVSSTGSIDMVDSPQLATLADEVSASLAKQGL
# Procedure: An intracellular oxygenation reaction by the compounds PzT, OMe, Q, and J of the present invention was performed using HEK cells in which aggregated tau was overexpressed. Specifically, 10 uM of the compound of the present invention was added to a cell medium, and then irradiated with light at 595 nm for 15 minutes. After the reaction, viable cells were collected and lysed, and then the intracellular photooxygenation reaction was evaluated by measurement with Western blotting (FIG. 2). In a case where the compound of the present invention was not added, tau was detected between 75 kDa and 100 kDa by the 5A6 antibody that is a tau specific antibody, and a theoretical molecular weight of the overexpressed tau was about 70 kDa, and therefore, the tau was identified as a monomer.
# Similarly, the compounds of the present invention C2OH, O, and O2 were also subjected to an intracellular oxygenation reaction. The cells overexpressing aggregated tau were incubated with a medium containing 1 μM of the compound of the present invention for 10 minutes. Thereafter, light of 595 nm was applied for 15 minutes. Reaction progress was identified and quantified by Western blotting measurements (FIG. 3). […] As a result, it was confirmed that a crosslinked product, which is one of products of a photooxygenation reaction, was detected in a region of more than 250 kDa on the right side of the lane to which the compound was added, whereas no crosslinked body was provided under non-light irradiation conditions, that is, on the left side of each lane in all the compounds, and the reaction proceeded in a light-dependent manner.
# [2] = UV-vis spectrum, verification of absorption wavelength; format: physicochemical
# From the text: It can be said that the longer the wavelength of light used for a living body, the lower the cytotoxicity and the better the tissue permeability.
# [3] = molecular target: T2, overexpressed tau (Homo sapiens, UniProt P10636); experiment: LC-MS/MS analysis of methionine oxidation of overexpressed tau after intracellular reaction; format: cell-based; conditions: monomeric tau, trypsin digestion, FIG. 6
# T2 construct: expressed in transfected cells; host or cells: HEK cells (line called Fs17)
# T2 sequence (P10636 1-412 isoform P10636-7): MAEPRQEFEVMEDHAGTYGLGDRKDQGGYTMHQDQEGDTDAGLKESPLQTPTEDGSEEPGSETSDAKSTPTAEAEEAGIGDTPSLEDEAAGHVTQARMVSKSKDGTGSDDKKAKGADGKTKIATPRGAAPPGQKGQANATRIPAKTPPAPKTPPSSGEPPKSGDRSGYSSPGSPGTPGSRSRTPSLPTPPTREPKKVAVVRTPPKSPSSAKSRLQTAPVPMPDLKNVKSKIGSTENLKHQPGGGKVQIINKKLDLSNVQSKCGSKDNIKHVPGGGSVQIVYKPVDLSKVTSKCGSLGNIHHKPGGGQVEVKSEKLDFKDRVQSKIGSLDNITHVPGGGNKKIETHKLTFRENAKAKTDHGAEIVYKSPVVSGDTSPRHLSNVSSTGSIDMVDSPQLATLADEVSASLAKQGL
# Procedure: LC-MS/MS analysis was performed on the reaction product in order to confirm the production of side chain oxygenates that were difficult to specifically detect as a result of overlapping with unreacted substances in Western blotting. Since side chain oxygenates are mainly produced by oxidation of methionine side chains to sulfoxide, it was focused on 4 methionines contained in overexpressed tau having a total length of 412 amino acids. The intracellular protein after the reaction was separated according to the molecular weight by SDS-page, monomeric tau was cut out by trypsin enzyme digestion, and LC-MS/MS measurement was performed. A ratio of the detection intensity of the methionine oxidant was calculated from the sum of the detection intensities of the methionine reductant and the oxidant obtained from MS1 in the LC-MS/MS spectrum (FIG. 6).
# [4] = 10 uM compound in cell medium, 5A6 antibody, FIG. 2
Structure (SMILES),"photooxygenation activity relative to the compound Q ([1]; 1 μM compound, 595 nm 15 minutes, quantified by Western blotting)","crosslinked product (more than 250 kDa) of the photooxygenation reaction ([1]; 1 μM compound, 10 minutes incubation, light-dependent, FIG. 3)","crosslinked product (more than 250 kDa) of the photooxygenation reaction [1, 4]","λmax (nm), maximum absorption wavelength [2] [nm]",oxygenation level of methionine compared with control (Vehicle) [3]
"OCCN1CCCc2cc(/C=C/C=C/c3nc4ncc(Br)nc4s3)ccc21 [Compound C2OH, 2-(6-((1E,3E)-4-(6-bromothiazolo[4,5-b]pyrazin-2-yl)butadien-1,3-dien-1-yl)-3,4-dihydroquinolin-1(2H)-yl)ethane-1-ol]",twice or more,detected,,,
"Brc1cnc2nc(/C=C/C=C/c3cc4c5c(c3)CCCN5CCC4)sc2n1 [Compound J, 6-Bromo-2-((1E,3E)-4-(2,3,6,7-tetrahydro-1H,5H-pyrido[3,2,1-ij]quinolin-9-yl)butadien-1,3-dien-1-yl)thiazolo[4,5-b]pyrazine]",,,detected,508,
"COc1cc(N(C)C)cc(OC)c1/C=C/C=C/c1nc2ncc(Br)nc2s1 [Compound OMe, 4-((1E,3E)-4-(6-Bromothiazolo[4,5-b]pyrazin-2-yl)butadien-1,3-dien-1-yl)-3,5-dimethoxy-N,N-dimethylaniline]",,,detected,495,
"CN(C)c1ccc(/C=C/C=C/c2nc3ccc(Br)nc3s2)cc1 [Compound PT, 4-((1E,3E)-4-(5-bromothiazolo[5,4-b]pyridin-2-yl)butadien-1,3-dien-1-yl)-N,N-dimethylaniline]",,,,437,
"CN(C)c1ccc(/C=C/C=C/c2nc3ncc(Br)nc3s2)cc1 [Compound PzT, 4-((1E,3E)-4-(6-Bromothiazolo[4,5-b]pyrazin-2-yl)butadien-1,3-dien-1-yl)-N,N-dimethylaniline]",,,detected,468,
"CN1CCCc2cc(/C=C/C=C/c3nc4ncc(Br)nc4s3)ccc21 [Compound Q, 6-Bromo-2-((1E,3E)-4-(1-methyl-1,2,3,4-tetrahydroquinolin-6-yl)butadiene-1,3-dien-1-yl)thiazolo[4,5-b]pyrazine]",,,detected,500,did not change
